# Where “and” joins values, the source holds several entries; their conditions need not be identical. Identical values can stand only once.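 Growth conditions: 96-well plates. Treatment: test compound, 48 hours, 5 concentrations. Analysis: linear interpolation between bracketing concentrations; unreached endpoints set to highest concentration. Here, GI50 denotes the concentration required for 50% inhibition of growth. TGI: total growth inhibition.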
# Experiments:
# Assay in all cases: NCI tumour cell line growth inhibition, 48 h
# SF-539 CNS = system: SF-539 CNS
# NCI-H23 lung = system: NCI-H23 lung
# HS 578T breast = system: HS 578T breast
# NCI-H226 lung = system: NCI-H226 lung
# SR leukemia = system: SR leukemia
# NCI-H460 lung = system: NCI-H460 lung
# M14 melanoma = system: M14 melanoma
# RXF 393 renal = system: RXF 393 renal
# RPMI-8226 leukemia = system: RPMI-8226 leukemia
# SNB-75 CNS = system: SNB-75 CNS
Compound,GI50 (SF-539 CNS),TGI (SF-539 CNS),GI50 (NCI-H23 lung),TGI (NCI-H23 lung),GI50 (HS 578T breast),TGI (HS 578T breast),GI50 (NCI-H226 lung),TGI (NCI-H226 lung),GI50 (SR leukemia),TGI (SR leukemia),GI50 (NCI-H460 lung),TGI (NCI-H460 lung),GI50 (M14 melanoma),TGI (M14 melanoma),GI50 (RXF 393 renal),TGI (RXF 393 renal),GI50 (RPMI-8226 leukemia),TGI (RPMI-8226 leukemia),GI50 (SNB-75 CNS),TGI (SNB-75 CNS)
Fc1ccc(-c2ncn(C3CCNCC3)c2-c2ccnc(Oc3ccccc3)n2)cc1,> 25 µM,> 25 µM,> 25 µM,> 25 µM,> 13.1 µM,> 25 µM,> 25 µM,> 25 µM,9.17 µM,> 20.1 µM,16.1 µM,> 25 µM,9.86 µM,> 25 µM,11.7 µM,> 25 µM,> 23.9 µM,> 25 µM,> 19.3 µM,> 25 µM
CC(C)c1ccc2c(N=Nc3ccc(S(N)(=O)=O)cc3)c(O)[nH]c2c1,5.56 µM,> 25 µM,11.1 µM,> 25 µM,8.07 µM,> 25 µM,6.62 µM,> 20.6 µM,> 16.2 µM,> 25 µM,5.72 µM,> 16.4 µM,> 25 µM,> 25 µM,4.41 µM,> 16 µM,> 25 µM,> 25 µM,4.72 µM,10.3 µM
CCOCCc1c(O)nc(SC)[nH]c1=O,> 100 µM,> 100 µM,> 100 µM,> 100 µM,> 100 µM,> 100 µM,> 100 µM,> 100 µM,> 100 µM,> 100 µM,> 100 µM,> 100 µM,> 100 µM,> 100 µM,> 100 µM,> 100 µM,> 100 µM,> 100 µM,> 100 µM,> 100 µM
O=C(CSc1nc2ccc([N+](=O)[O-])cc2[nH]1)Nc1cccc(Cl)c1,3.02 µM,11.7 µM,2.26 µM,9.3 µM,2.95 µM,19.4 µM,2.38 µM,9.93 µM,3.34 µM,> 45.7 µM,3.22 µM,13.1 µM,3.06 µM,13.6 µM,2.39 µM,8.49 µM,1.66 µM,> 27.8 µM,1.85 µM,7.81 µM
C/C(=N\Nc1ccc2ccccc2n1)c1ccccc1O,,> 100 µM,,> 100 µM,,> 100 µM,,> 100 µM,,8.16 µM,,> 100 µM,,> 100 µM,,> 100 µM,,> 100 µM,,24.7 µM
CN(CCCCCl)P(=O)(OCc1ccc([N+](=O)[O-])o1)C(F)(F)c1ccc(CC(=O)N[C@@H](CC(=O)O)C(=O)N[C@@H](Cc2ccc(C(F)(F)P(=O)(OCc3ccc([N+](=O)[O-])o3)N(C)CCCCCl)cc2)C(N)=O)cc1 (stereo not given in full),31 µM,99.8 µM,51.7 µM,> 100 µM,37.6 µM,> 100 µM,> 100 µM,> 100 µM,22.9 µM,49.9 µM,> 100 µM,> 100 µM,,,> 100 µM,> 100 µM,25.5 µM,71.9 µM,34.5 µM,91.9 µM
COc1ccc(-c2cn(-c3ccc(Cl)cc3)c(=S)[nH]2)cc1OC,29.9 µM,> 100 µM,> 100 µM,> 100 µM,19.2 µM,> 100 µM,3.62 µM,> 100 µM,2.91 µM,> 100 µM,3.92 µM,> 100 µM,,,2.98 µM,> 100 µM,4.43 µM,92.3 µM,16.4 µM,60.3 µM
COc1ccc(-c2cc(-c3ccc(O)cc3)nc3nc(=S)[nH]c(N)c23)cc1,2.46 µM,17.1 µM,25 µM,50.1 µM,20.6 µM,48.4 µM,15.7 µM,36.9 µM,6.94 µM,> 100 µM,15.9 µM,36.9 µM,19.7 µM,35.4 µM,28 µM,92.7 µM,10.6 µM,25.7 µM,26.2 µM,> 100 µM
COC(=O)NNc1c([N+](=O)[O-])cnn(-c2ccccc2)c1=O,,8.22 µM,,5.82 µM,,6.98 µM,,9.78 µM,,0.981 µM,,15.9 µM,,3.29 µM,,10.1 µM,,19.2 µM,,19.5 µM
O=S(=O)(O)c1ccc(Cl)cc1.[Cd],13.7 µM,32.4 µM,23.2 µM,82.3 µM,47 µM,> 100 µM,> 100 µM,> 100 µM,22.8 µM,> 100 µM,4.61 µM,25.3 µM,> 100 µM,> 100 µM,27.3 µM,79.3 µM,32.1 µM,> 100 µM,37.7 µM,97.2 µM
CS(=O)(=O)N1CCN(Cc2cc3nc(-c4cccc5[nH]ncc45)nc(N4CCOCC4)c3s2)CC1,0.444 µM and 0.268 µM,,1.37 µM and 0.603 µM,> 100 µM,0.134 µM and 0.148 µM,1.44 µM and 1.11 µM,0.408 µM and 0.473 µM,> 21.6 µM,2.46 µM and 2.02 µM,> 100 µM,0.357 µM and 0.311 µM,> 100 µM,2.13 µM and 0.438 µM,> 100 µM,0.209 µM and 0.165 µM,1.54 µM and 1.03 µM,2 µM and 1.94 µM,> 22.2 µM,0.0918 µM and 0.0301 µM,3.28 µM and 0.495 µM
CC1(C)Cc2cccc(OCC(O)CN3CCN(c4ccc(F)cc4)CC3)c2O1 (stereo not given),13 µM,27.3 µM,19.1 µM,> 50 µM,10.4 µM,31.3 µM,17.1 µM,> 50 µM,13.4 µM,> 50 µM,15.3 µM,> 50 µM,7.37 µM,15.1 µM,8.33 µM,22.6 µM,9.18 µM,26.2 µM,10.9 µM,34.2 µM
O=C(O)c1cc(N/C=C2\C(=O)c3ccccc3OC2O)ccc1O (stereo not given),16.7 µg/mL,43.9 µg/mL,20.4 µg/mL,59.6 µg/mL,19.6 µg/mL,140 µg/mL,37.7 µg/mL,98.1 µg/mL,4.77 µg/mL,36.9 µg/mL,34 µg/mL,81.3 µg/mL,25.4 µg/mL,66.1 µg/mL,18.5 µg/mL,40.1 µg/mL,2.24 µg/mL,7.82 µg/mL,25.2 µg/mL,129 µg/mL

# — PubChem BioAssay (NCI)
